For the first assay, the target named is T1, N-type Ca^2+ Channel (Homo sapiens, UniProt Q00975).
T1 construct: host or cells: IMR-32 cells differentiated with dibutyryl cAMP and bromodeoxyuridine
T1 sequence (Q00975 whole entry): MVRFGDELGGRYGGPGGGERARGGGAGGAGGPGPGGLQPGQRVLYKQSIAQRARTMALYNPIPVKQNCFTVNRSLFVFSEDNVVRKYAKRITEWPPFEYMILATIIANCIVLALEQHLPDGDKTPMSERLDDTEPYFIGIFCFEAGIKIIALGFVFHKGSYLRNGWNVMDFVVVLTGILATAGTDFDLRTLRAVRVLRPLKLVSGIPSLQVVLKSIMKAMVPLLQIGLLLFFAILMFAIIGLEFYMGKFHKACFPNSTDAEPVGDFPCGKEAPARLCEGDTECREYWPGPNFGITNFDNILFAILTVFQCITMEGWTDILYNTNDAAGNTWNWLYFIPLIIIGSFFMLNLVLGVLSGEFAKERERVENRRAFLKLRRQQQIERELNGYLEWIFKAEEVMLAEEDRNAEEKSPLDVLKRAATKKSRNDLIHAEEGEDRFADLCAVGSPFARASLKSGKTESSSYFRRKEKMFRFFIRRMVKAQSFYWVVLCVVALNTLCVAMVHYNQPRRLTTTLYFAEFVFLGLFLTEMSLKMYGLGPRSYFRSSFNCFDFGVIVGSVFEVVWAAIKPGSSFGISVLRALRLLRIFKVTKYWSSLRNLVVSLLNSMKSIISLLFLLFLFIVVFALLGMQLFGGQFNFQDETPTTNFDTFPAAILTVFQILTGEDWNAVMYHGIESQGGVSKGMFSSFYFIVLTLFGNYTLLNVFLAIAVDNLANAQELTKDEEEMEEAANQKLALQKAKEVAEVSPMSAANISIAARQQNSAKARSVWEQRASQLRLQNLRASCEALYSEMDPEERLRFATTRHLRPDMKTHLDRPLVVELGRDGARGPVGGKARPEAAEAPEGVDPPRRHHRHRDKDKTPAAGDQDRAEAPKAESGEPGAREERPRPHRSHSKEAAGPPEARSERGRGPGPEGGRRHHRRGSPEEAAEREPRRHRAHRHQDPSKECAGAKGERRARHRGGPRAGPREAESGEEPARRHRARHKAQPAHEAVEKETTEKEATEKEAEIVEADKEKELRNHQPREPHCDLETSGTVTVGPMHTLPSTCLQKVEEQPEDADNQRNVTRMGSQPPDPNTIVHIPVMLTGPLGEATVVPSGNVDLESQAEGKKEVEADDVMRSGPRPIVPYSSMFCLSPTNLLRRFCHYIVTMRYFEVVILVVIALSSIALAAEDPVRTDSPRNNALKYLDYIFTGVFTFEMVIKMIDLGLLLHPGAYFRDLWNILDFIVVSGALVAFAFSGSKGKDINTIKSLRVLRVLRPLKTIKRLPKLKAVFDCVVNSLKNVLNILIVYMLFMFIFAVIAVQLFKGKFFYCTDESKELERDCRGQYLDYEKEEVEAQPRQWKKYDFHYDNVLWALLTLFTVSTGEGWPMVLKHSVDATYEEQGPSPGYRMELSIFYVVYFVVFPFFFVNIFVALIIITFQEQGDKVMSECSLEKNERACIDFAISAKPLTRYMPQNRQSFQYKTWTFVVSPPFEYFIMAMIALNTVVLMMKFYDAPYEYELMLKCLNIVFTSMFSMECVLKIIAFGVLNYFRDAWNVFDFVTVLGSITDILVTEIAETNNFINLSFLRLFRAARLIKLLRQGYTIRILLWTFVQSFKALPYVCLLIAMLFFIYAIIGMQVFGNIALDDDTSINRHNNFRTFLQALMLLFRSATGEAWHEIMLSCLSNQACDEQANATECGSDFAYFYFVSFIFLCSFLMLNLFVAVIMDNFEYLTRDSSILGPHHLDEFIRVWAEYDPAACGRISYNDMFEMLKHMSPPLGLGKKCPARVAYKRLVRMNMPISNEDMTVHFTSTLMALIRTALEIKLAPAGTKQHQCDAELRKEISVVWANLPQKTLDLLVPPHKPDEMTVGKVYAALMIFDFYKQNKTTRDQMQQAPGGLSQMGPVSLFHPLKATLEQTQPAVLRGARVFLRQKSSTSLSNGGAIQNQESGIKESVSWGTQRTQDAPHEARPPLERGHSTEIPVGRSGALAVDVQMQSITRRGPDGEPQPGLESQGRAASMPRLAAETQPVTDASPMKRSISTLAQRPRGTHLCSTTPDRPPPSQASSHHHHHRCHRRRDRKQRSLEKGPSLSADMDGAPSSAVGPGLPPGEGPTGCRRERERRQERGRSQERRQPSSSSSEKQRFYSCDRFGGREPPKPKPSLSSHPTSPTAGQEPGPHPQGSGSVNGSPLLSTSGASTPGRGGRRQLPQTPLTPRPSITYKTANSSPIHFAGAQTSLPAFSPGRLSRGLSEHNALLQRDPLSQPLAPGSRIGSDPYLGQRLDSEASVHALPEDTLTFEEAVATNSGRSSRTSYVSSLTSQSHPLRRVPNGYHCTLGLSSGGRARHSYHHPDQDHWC
T1 sequence (P54284 whole entry partner): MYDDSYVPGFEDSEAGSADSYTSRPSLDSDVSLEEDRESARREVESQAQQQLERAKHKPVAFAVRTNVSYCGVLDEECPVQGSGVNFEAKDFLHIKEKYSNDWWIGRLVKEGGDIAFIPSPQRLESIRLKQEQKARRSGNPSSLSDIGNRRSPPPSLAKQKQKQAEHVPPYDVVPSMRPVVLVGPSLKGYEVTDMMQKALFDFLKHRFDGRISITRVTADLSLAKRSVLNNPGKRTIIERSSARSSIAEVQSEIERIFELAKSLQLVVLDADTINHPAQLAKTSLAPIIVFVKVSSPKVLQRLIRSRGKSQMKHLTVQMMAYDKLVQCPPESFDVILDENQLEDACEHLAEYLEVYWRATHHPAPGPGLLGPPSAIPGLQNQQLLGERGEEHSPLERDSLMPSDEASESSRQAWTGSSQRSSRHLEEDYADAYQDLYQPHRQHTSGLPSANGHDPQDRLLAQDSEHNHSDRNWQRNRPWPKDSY
T1 sequence (P54289 25-946 partner limits assumed): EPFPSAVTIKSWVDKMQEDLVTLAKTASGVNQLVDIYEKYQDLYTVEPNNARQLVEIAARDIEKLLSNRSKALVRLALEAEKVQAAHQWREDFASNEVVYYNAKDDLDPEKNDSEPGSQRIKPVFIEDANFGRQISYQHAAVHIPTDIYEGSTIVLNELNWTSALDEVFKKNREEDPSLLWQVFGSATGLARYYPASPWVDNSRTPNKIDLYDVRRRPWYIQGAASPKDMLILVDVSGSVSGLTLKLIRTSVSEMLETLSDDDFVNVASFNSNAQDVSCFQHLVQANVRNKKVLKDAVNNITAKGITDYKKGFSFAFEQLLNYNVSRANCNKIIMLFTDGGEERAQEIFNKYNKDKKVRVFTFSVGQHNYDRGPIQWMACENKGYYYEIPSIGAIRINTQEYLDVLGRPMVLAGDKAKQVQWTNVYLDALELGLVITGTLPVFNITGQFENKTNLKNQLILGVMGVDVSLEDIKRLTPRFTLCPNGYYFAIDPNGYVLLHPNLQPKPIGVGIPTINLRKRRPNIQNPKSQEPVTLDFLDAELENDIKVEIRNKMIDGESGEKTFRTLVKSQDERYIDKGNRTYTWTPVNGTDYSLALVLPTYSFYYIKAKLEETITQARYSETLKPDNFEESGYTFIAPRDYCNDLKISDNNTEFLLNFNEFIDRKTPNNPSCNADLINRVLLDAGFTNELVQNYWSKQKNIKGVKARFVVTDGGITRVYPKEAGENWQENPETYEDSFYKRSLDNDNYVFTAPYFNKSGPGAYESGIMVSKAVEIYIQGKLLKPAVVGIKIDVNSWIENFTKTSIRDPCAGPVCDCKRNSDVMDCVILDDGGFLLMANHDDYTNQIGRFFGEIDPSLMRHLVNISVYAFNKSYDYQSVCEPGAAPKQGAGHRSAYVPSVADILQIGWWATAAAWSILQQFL
T1 sequence (P54289 947-1103 partner limits assumed): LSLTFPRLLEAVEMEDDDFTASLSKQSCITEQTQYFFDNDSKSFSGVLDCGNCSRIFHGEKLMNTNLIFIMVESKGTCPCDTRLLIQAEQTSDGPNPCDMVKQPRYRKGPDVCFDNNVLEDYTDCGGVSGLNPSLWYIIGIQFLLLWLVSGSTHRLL
The assay can be described thus: Measurement of N-type Ca2+ channel blocking potencies in IMR-32 cells using the fluorescent Ca2+ indicator Indo-1. Format: cell-based. Conditions: 0.3 μM; IMR-32 cells, 5 μM nitrendipine. The protocol: Measurement of N-type Ca^2+ Channel Blocking Potencies of Compounds in IMR-32 Cells Using the Fluorescent Ca^2 + Indicator Indo-1
IMR-32 cells are a human tumoral cell line of neural origin. […] Calcium flux into these cells may be induced by stimulation with elevated potassium concentrations. The L-channel component of calcium flux may be blocked by adding 5 μM nitrendipine. The remaining component of calcium entry into the IMR-32 cells is due to calcium flux through N-type calcium channels. Intracellular calcium concentrations are measured using the fluorescent calcium indicator Indo-1. The effect of drug concentration on calcium uptake is studied.
The IMR-32 cell line was obtained from the American Type Culture Collection (Rockville, Md.). Cells were grown in Eagle's Minimum Essential Medium with Earle's salts supplemented with 10% fetal bovine serum, 2 mM L-Gln and antibiotic/antimycotic mixture (Gibco). At approximately 80% confluency, differentiation was induced by the addition of 1 mM dibutyryl cAMP and 2.5 μM bromodeoxyuridine to the medium. After 7 to 13 days of differentiation, cells were detached using 0.5 mM EDTA and loaded with 5 μM Indo-1 acetoxymethyl ester (Molecular Probes, Eugene, Oreg.) at 30° C. for 45 minutes. Loaded cells were washed twice, resuspended (~10^7 cells/mL) in assay buffer (10 mM HEPES/Tris pH 7.4 in Hank's Balanced Salt Solution without bicarbonate or phenol red containing 0.5% bovine serum albumin) and kept on ice until use. Fluorescence measurements were carried out in a Photon Technology International (PTI, South Brunswick, N.J.) Model RF-F3004 spectrofluorometer with dual emission monochromators using excitation at 350 nm and emission at 400 and 490 nm. The instrument was equipped with a thermostated cuvette holder with stirring capabilities as well as with a computer-controlled pump which allowed for reagent addition during measurement. Instrument control and data collection was done by PTI's OSCAR software running on an IBM compatible computer. Different concentrations of the test compounds (60 μL in dimethyl sulfoxide) were added to 5.94 mL of assay buffer containing approximately 3×10^6 loaded cells, and 5 μM nitrendipine (in 30 μL EtOH) to block L-type Ca^2+ channels. Samples were incubated for 10 minutes at 30° C. and then aliquoted into three 10×10 mm disposable acrylic cuvettes. Emission signals at 400 and 490 nm were acquired from each cuvette at 30° C. for 50 seconds. At 20 seconds after the start of reading, cells were depolarized by the addition of 160 μL of stimulation solution (1 M KCl, 68 mM CaCl2) to the cuvette via the computer-controlled pump. Ratio of dual emission signals (400 nm/ 490 nm), which is proportional to intracellular Ca^2+ concentration, was plotted against time, and the difference between maximal response after stimulation and basal value (before stimulation) was determined. Values obtained in this way were plotted as a function of drug concentration. IC50 values of test compounds were calculated by fitting a four-parameter logistic function to the data using the least squares method.
In the case of `CCC[C@@H](C(=O)N[C@@H](Cc1ccc(OCc2ccccc2)cc1)C(=O)NC(C)(C)C)N(C)CCC(C)C` (relative stereo) [Example 46, [S-(R*,R*)]-4-Methyl-2-[methyl-(3-methyl-butyl)-amino]-butyric acid [2-(4-benzyloxy-phenyl)-1-tert-butylcarbamoyl-ethyl]-amide], the “IMR 32 % of Blockade @ 0.3 μM” value is on record as 36%.

The assay is the same for the next values; noted with them: 1 μM; IMR-32 cells, 5 μM nitrendipine.
On to `CN[C@@H](CC(C)C)C(=O)N[C@@H](Cc1ccc(OCc2ccccc2)cc1)C(=O)N1CCN(Cc2ccccc2)CC1` (relative stereo) [Example 43, [S-(R*,R*)]-4-Methyl-2-methylamino-pentanoic acid [1-(4-benzyloxy-benzyl)-2-(4-benzyl-piperazin-1-yl)-2-oxo-ethyl]-amide], for which the “IMR 32 % of Blockade @ 1 μM” value is listed as 51%.

Still in this assay, the particulars now being: 3 μM; IMR-32 cells, 5 μM nitrendipine.
With `CCC[C@@H](C(=O)N[C@@H](Cc1ccc(OCc2ccccc2)cc1)C(=O)NC(C)(C)C)N(C)CCC(C)C` (relative stereo) [Example 46, [S-(R*,R*)]-4-Methyl-2-[methyl-(3-methyl-butyl)-amino]-butyric acid [2-(4-benzyloxy-phenyl)-1-tert-butylcarbamoyl-ethyl]-amide], the “IMR 32 % of Blockade @ 3 μM” value is given as 74%.

Staying with this assay, now noted: 10 μM; IMR-32 cells, 5 μM nitrendipine.
With `CN[C@@H](CC(C)C)C(=O)N[C@@H](Cc1ccc(OCc2ccccc2)cc1)C(=O)N1CCN(Cc2ccccc2)CC1` (relative stereo) [Example 43, [S-(R*,R*)]-4-Methyl-2-methylamino-pentanoic acid [1-(4-benzyloxy-benzyl)-2-(4-benzyl-piperazin-1-yl)-2-oxo-ethyl]-amide], the “IMR 32 % of Blockade @ 10 μM” value was determined as 96%.

Still in this assay, the particulars now being: IMR-32 cells, K+ depolarization, 5 μM nitrendipine to block L-type channels; read-out: IMR 32 IC50.
As to `CC(C)C[C@H](N[C@@H]1C=CCCC1)C(=O)NC(Cc1ccc(OCc2ccccc2)cc1)C(=O)NC(C)(C)C` (relative stereo) [Example 49, [S-(R*,R*)]-2-(Cyclohex-2-enylamino)-4-methyl-pentanoic acid [2-(4-benzyloxy-phenyl)-1-tert-butylcarbamoyl-ethyl]-amide], the IC50 – broadly, the concentration that inhibits the measured activity by half – was determined as 660 nM.

Turning to `CC(C)=CCN(C)[C@@H](CC(C)C)C(=O)N[C@@H](Cc1ccc(OCc2ccccc2)cc1)C(=O)NC(C)(C)C` (relative stereo) [Example 51, [S-(R*,R*)]4-Methyl-2-[methyl-(3-methyl-but-2-enyl)-amino]-pentanoic acid [2-(4-benzyloxy-phenyl)-1-tert-butylcarbamoyl-ethyl]-amide], the IC50 is 1300 nM.

In the case of `CC(C)C[C@H](NCc1ccc(C(C)(C)C)cc1)C(=O)N[C@@H](Cc1ccc(OCc2ccccc2)cc1)C(=O)N1CCN(Cc2ccccc2)CC1` (relative stereo) [Example 52, [S-(R*,R*)]-2-(4-tert-Butyl-benzylamino)-4-methyl-pentanoic acid [1-(4-benzyloxy-benzyl)-2-(4-benzyl-piperazin-1-yl)-2-oxo-ethyl]-amide], the IC50 came out at 770 nM.

Take `CC(C)=CCN[C@@H](CC(C)C)C(=O)N[C@@H](Cc1ccc(OCc2ccccc2)cc1)C(=O)N1CCN(Cc2ccccc2)CC1` (relative stereo) [Example 53, [S-(R*,R*)]-4-Methyl-2-(3-methyl-but-2-enylamino)-pentanoic acid [1-(4-benzyloxy-benzyl)-2-(4-benzyl-piperazin-1-yl)-2-oxo-ethyl]-amide]: the IC50 was found to be 700 nM.

As for `CC(C)CCN(C)[C@@H](CC(C)C)C(=O)N[C@@H](Cc1ccc(OCc2ccccc2)cc1)C(=O)NCCN1CCOCC1` (relative stereo) [Example 57, [S-(R*,R*)]-4-Methyl-2-[methyl-(3-methyl-butyl)-amino]-pentanoic acid [2-(4-benzyloxy-phenyl)-1-(2-morpholin-4-yl-ethylcarbamoyl)-ethyl]-amide], the concentration for half-maximal inhibition (IC50) was determined as 2100 nM.

Turning to `CC(C)CCN(C)[C@@H](CC(C)C)C(=O)N[C@@H](Cc1ccc(OCc2ccccc2)cc1)C(=O)NCCc1ccccn1` (relative stereo) [Example 58, [S-(R*,R*)]-4-Methyl-2-[methyl-(3-methyl-butyl)-amino]-pentanoic acid [2-(4-benzyloxy-phenyl)-1-(2-pyridin-2-yl-ethylcarbamoyl)-ethyl]-amide], the IC50 was 1000 nM.

Regarding `CC(C)CCN(C)[C@@H](CC(C)C)C(=O)N[C@@H](Cc1ccc(OCc2ccccc2)cc1)C(=O)NCCCn1ccnc1` (relative stereo) [Example 59, [S-(R*,R*)]-4-Methyl-2-[methyl-(3-methyl-butyl)-amino]-pentanoic acid [2-(4-benzyloxy-phenyl)-1-(3-imidazol-1-yl-propylcarbamoyl)-ethyl]-amide], the IC50 stood at 1600 nM.

As to `CC(C)CCN(C)[C@@H](CC(C)C)C(=O)N[C@@H](Cc1ccc(OCc2ccccc2)cc1)C(=O)N1CCSCC1` (relative stereo) [Example 61, [S-(R*,R*)]-4-Methyl-2-[methyl-(3-methyl-butyl)-amino]-pentanoic acid [1-(4-benzyloxy-benzyl)-2-oxo-2-thiomorpholin-4-yl-ethyl]-amide], the IC50 worked out at 400 nM.

For `CC(C)CCN(C)[C@@H](CC(C)C)C(=O)N[C@@H](Cc1ccc(OCc2ccccc2)cc1)C(=O)NC(C)(CO)CO` (relative stereo) [Example 62, [S-(R*,R*)]-4-Methyl-2-[methyl-(3-methyl-butyl)-amino]-pentanoic acid [2-(4-benzyloxy-phenyl)-1-(2-hydroxy-1-hydroxymethyl-1-methyl-ethylcarbamoyl)-ethyl]-amide], the IC50 came to 1100 nM.

Regarding `CCC(COC)NC(=O)[C@H](Cc1ccc(OCc2ccccc2)cc1)NC(=O)[C@H](CC(C)C)N(C)CCC(C)C` (relative stereo) [Example 63, [S-(R*,R*)]-4-Methyl-2-[methyl-(3-methyl-butyl)-amino]-pentanoic acid [2-(4-benzyloxy-phenyl)-1-(1-methoxymethyl-propylcarbamoyl)-ethyl]-amide], the IC50 turned out to be 800 nM.

Regarding `CC(C)CCN(C)[C@@H](CC(C)C)C(=O)N[C@@H](Cc1ccc(OCc2ccccc2)cc1)C(=O)NCCN1CCCC1` (relative stereo) [Example 64, [S-(R*,R*)]-4-Methyl-2-[methyl-(3-methyl-butyl)-amino]-pentanoic acid [2-(4-benzyloxy-phenyl)-1-(2-pyrrolidin-1-yl-ethylcarbamoyl)-ethyl]-amide], the 50% inhibitory concentration (IC50) amounted to 2400 nM.

Consider `CC(C)CCN(C)[C@@H](CC(C)C)C(=O)N[C@@H](Cc1ccc(OCc2ccccc2)cc1)C(=O)N1CCC(O)CC1` (relative stereo) [Example 65, [S-(R*,R*)]-4-Methyl-2-[methyl-(3-methyl-butyl)-amino]-pentanoic acid [1-(4-benzyloxy-benzyl)-2-(4-hydroxy-piperidin-1-yl)-2-oxo-ethyl]-amide], for which the IC50 stood at 1100 nM.

For `CC(C)CCN(C)[C@@H](CC(C)C)C(=O)N[C@@H](Cc1ccc(OCc2ccccc2)cc1)C(=O)NC1CCN(Cc2ccccc2)C1` (relative stereo) [Example 67, [S-(R*,R*)]-4-Methyl-2-[methyl-(3-methyl-butyl)-amino]-pentanoic acid [2-(4-benzyloxy-phenyl)-1-(1-benzyl-pyrrolidin-3-ylcarbamoyl)-ethyl]-amide], the IC50 is 400 nM.

In the case of `CC(C)C[C@@H](C(=O)N[C@@H](Cc1ccc(OCc2ccccc2)cc1)C(=O)NCCNCc1ccccc1)N1CCOCC1` (relative stereo) [Example 68, [S-(R*,R*)]-4-Methyl-2-morpholin4-yl-pentanoic acid [1-(2-benzylamino-ethylcarbamoyl)-2-(4-benzyloxy-phenyl)-ethyl]-amide], the IC50 is 1100 nM.

In the case of `CC(C)C[C@@H](C(=O)N[C@@H](Cc1ccc(OCc2ccccc2)cc1)C(=O)NC1CCN(Cc2ccccc2)C1)N1CCOCC1` (relative stereo) [Example 69, [S-(R*,R*)]-4-Methyl-2-morpholin-4-yl-pentanoic acid [2-(4-benzyloxy-phenyl)-1-(1-benzyl-pyrrolidin-3-ylcarbamoyl)-ethyl]-amide], the IC50 came out at 1300 nM.

For the origin of these results see patent publication US6117841A, “Substituted peptidylamine calcium channel blockers” (Warner-Lambert Company, priority 1999, dated 2000).
